Data as given in patent US20250304563A1, “ACTIVATORS OF EFFECTOR T CELLS” (Orum Therapeutics, Inc., priority 2022, published 2025).

Target: Cbl-b (36-427 aa truncated form, N-terminus Avi-tag) (Homo sapiens (Human), UniProt Q13191)
Assay: Cbl-b binding: TR-FRET displacement of BODIPY-FL probe
Method: Compounds were assessed for binding activity to Cbl-b by their ability to compete with and displace a probe comprised of BODIPY-FL fluorophore conjugated to a Cbl-b inhibitor (see Example 54 in WO2020264398). In the assay, a 36-427 aa truncated form of Cbl-b with an N-terminus Avi-tag was incubated 20 mM HEPES pH 7.5, 150 mM NaCl, 0.01% Triton X-100, 0.1% BSA, 0.5 mM TCEP buffer with streptavidin-terbium (Cisbio). After one hour of incubation at room temperature, 1 uM each of fluorescent probe and compound were combined with the reaction mixture. Compounds with Cbl-b binding activity competitively displace the fluorophore tagged inhibitor thereby disrupting the FRET signal from the terbium-BODIPY-FL complex. The reaction mixtures were incubated for one additional hour at room temperature to allow for competition between inhibitor and candidate compounds to occur. The time resolved FRET (TR-FRET) signal was then read at 520/620 […] (excitation/emission) using a Spectramax M5e plate reader (Molecular Devices) to measure probe displacement. Compounds with Cbl-b binding activity had decreased FRET signal owing to disruption of the terbium-BODIPY-FL FRET complex. Standard methods in PRISM were used to calculate the compound IC50 values from the experimental data.

Sequence of Cbl-b (36-427 aa truncated form, N-terminus Avi-tag) (Q13191 36-427): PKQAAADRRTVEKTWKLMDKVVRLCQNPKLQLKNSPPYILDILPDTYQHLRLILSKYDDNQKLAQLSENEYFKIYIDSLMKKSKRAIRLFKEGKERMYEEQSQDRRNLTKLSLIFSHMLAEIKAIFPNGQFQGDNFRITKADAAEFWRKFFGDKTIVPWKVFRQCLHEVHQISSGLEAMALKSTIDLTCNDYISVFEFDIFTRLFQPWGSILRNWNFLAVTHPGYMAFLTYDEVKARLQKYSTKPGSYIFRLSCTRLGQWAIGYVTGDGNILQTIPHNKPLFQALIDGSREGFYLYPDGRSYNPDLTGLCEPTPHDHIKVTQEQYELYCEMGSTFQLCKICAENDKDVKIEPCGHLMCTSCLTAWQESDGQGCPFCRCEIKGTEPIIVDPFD

SMILES: CNCC(=O)Nc1cc(C2(Cc3nncn3C)COC2)cc(N2Cc3c(cc(CN4CCC[C@H](C)C4)cc3C(F)(F)F)C2=O)n1 [Compound 101, N-(4-{3-[(4-methyl-1,2,4-triazol-3-yl)methyl]oxetan-3-yl}-6-(6-{[(3S)-3-methylpiperidin-1-yl]methyl}-1-oxo-4-(trifluoromethyl)-3H-isoindol-2-yl)pyridin-2-yl)-2-(methylamino)acetamide; formic acid]
- IC50: 0.00501 to 0.02 µM

SMILES: CNCc1cc(C2(Cc3nncn3C)COC2)cc(N2Cc3c(cc(CN4CCC[C@H](C)C4)cc3C(F)(F)F)C2=O)n1 [Compound 104, 2-(4-{3-[(4-methyl-1,2,4-triazol-3-yl)methyl]oxetan-3-yl}-6-[(methylamino)methyl]pyridin-2-yl)-6-{[(3S)-3-methylpiperidin-1-yl]methyl}-4-(trifluoromethyl)-3H-isoindol-1-one; trifluoroacetic acid]
- IC50: 0.1 to 1 µM

SMILES: CSC(C)(C)CNc1cc(C2(Cc3nncn3C)COC2)cc(N2Cc3c(cc(CN4CCC[C@H](C)C4)cc3C(F)(F)F)C2=O)n1 [Compound 105, 2-(4-{3-[(4-methyl-1,2,4-triazol-3-yl)methyl]oxetan-3-yl}-6-{[2-methyl-2-(methylsulfanyl)propyl]amino}pyridin-2-yl)-6-{[(3S)-3-methylpiperidin-1-yl]methyl}-4-(trifluoromethyl)-3H-isoindol-1-one; formic acid]
- IC50: 0.1 to 1 µM

SMILES: C[C@H]1CCCN(Cc2cc3c(c(C(F)(F)F)c2)CN(c2cc(C4(Cc5nncn5C)COC4)cc(NCCS)n2)C3=O)C1 [Compound 108, 2-(4-{3-[(4-methyl-1,2,4-triazol-3-yl)methyl]oxetan-3-yl}-6-[(2-sulfanylethyl)amino]pyridin-2-yl)-6-{[(3S)-3-methylpiperidin-1-yl]methyl}-4-(trifluoromethyl)-3H-isoindol-1-one]
- IC50: 0.001 to 0.005 µM

SMILES: C#CCNc1cc(C2(Cc3nncn3C)COC2)cc(N2Cc3c(cc(CN4CCC[C@H](C)C4)cc3C(F)(F)F)C2=O)n1 [Compound 109, (S)-2-(4-(3-((4-methyl-4H-1,2,4-triazol-3-yl)methyl)oxetan-3-yl)-6-(prop-2-yn-1-ylamino)pyridin-2-yl)-6-((3-methylpiperidin-1-yl)methyl)-4-(trifluoromethyl)isoindolin-1-one]
- IC50: 0.1 to 1 µM

SMILES: CCNc1cc([C@]2(c3nncn3C)C[C@@H](C)C2)nc(N2Cc3c(cc(CN4CCC[C@H](C)C4)cc3C(F)(F)F)C2=O)n1 [Compound 114A, 2-[4-(ethylamino)-6-[(1s,3R)-3-methyl-1-(4-methyl-1,2,4-triazol-3-yl)cyclobutyl]pyrimidin-2-yl]-6-{[(3S)-3-methylpiperidin-1-yl]methyl}-4-(trifluoromethyl)-3H-isoindol-1-one]
- IC50: 0.1 to 1 µM

SMILES: CCNc1cc([C@]2(c3nncn3C)C[C@H](C)C2)nc(N2Cc3c(cc(CN4CCC[C@H](C)C4)cc3C(F)(F)F)C2=O)n1 [Compound 114B, 2-[4-(ethylamino)-6-[(1r,3S)-3-methyl-1-(4-methyl-1,2,4-triazol-3-yl)cyclobutyl]pyrimidin-2-yl]-6-{[(3S)-3-methylpiperidin-1-yl]methyl}-4-(trifluoromethyl)-3H-isoindol-1-one]
- IC50: 0.1 to 1 µM

SMILES: C#CCN1CCN(c2cc(C3(Cc4nncn4C)COC3)cc(N3Cc4c(cc(CN5CCC[C@H](C)C5)cc4C(F)(F)F)C3=O)n2)CC1 [Compound 127, (S)-2-(4-(3-((4-methyl-4H-1,2,4-triazol-3-yl)methyl)oxetan-3-yl)-6-(4-(prop-2-yn-1-yl)piperazin-1-yl)pyridin-2-yl)-6-((3-methylpiperidin-1-yl)methyl)-4-(trifluoromethyl)isoindolin-1-one]
- IC50: 0.02 to 0.1 µM

SMILES: C[C@H]1CCCN(Cc2cc3c(c(C(F)(F)F)c2)CN(c2cc(C4(Cc5nncn5C)COC4)cc(N4CCN(CC#N)CC4)n2)C3=O)C1 [Compound 128, (S)-2-(4-(4-(3-((4-methyl-4H-1,2,4-triazol-3-yl)methyl)oxetan-3-yl)-6-(6-((3-methylpiperidin-1-yl)methyl)-1-oxo-4-(trifluoromethyl)isoindolin-2-yl)pyridin-2-yl)piperazin-1-yl)acetonitrile]
- IC50: 0.02 to 0.1 µM

SMILES: Cc1cn(CCNc2cc(C3(Cc4nncn4C)COC3)cc(N3Cc4c(cc(CN5CCC[C@H](C)C5)cc4C(F)(F)F)C3=O)n2)nn1 [Compound 129, (S)-2-(6-((2-(4-methyl-1H-1,2,3-triazol-1-yl)ethyl)amino)-4-(3-((4-methyl-4H-1,2,4-triazol-3-yl)methyl)oxetan-3-yl)pyridin-2-yl)-6-((3-methylpiperidin-1-yl)methyl)-4-(trifluoromethyl)isoindolin-1-one]
- IC50: 0.02 to 0.1 µM

SMILES: C[C@H]1CCCN(Cc2cc3c(c(C(F)(F)F)c2)CN(c2cc(C4(Cc5nncn5C)COC4)cc(N4CCN(C(=O)Cc5nnn[nH]5)CC4)n2)C3=O)C1 [Compound 131, (S)-2-(6-(4-(2-(1H-tetrazol-5-yl)acetyl)piperazin-1-yl)-4-(3-((4-methyl-4H-1,2,4-triazol-3-yl)methyl)oxetan-3-yl)pyridin-2-yl)-6-((3-methylpiperidin-1-yl)methyl)-4-(trifluoromethyl)isoindolin-1-one]
- IC50: 0.02 to 0.1 µM

SMILES: C[C@H]1CCCN(Cc2cc3c(c(C(F)(F)F)c2)CN(c2cc(C4(Cc5nncn5C)COC4)cc(N4CCN(C(=O)CN=[N+]=[N-])CC4)n2)C3=O)C1 [Compound 132, (S)-2-(6-(4-(2-azidoacetyl)piperazin-1-yl)-4-(3-((4-methyl-4H-1,2,4-triazol-3-yl)methyl)oxetan-3-yl)pyridin-2-yl)-6-((3-methylpiperidin-1-yl)methyl)-4-(trifluoromethyl)isoindolin-1-one]
- IC50: 0.02 to 0.1 µM

SMILES: C=CCS(=O)(=O)N1CCN(c2cc(C3(Cc4nncn4C)COC3)cc(N3Cc4c(cc(CN5CCC[C@H](C)C5)cc4C(F)(F)F)C3=O)n2)CC1 [Compound 133, (S)-2-(6-(4-(allylsulfonyl)piperazin-1-yl)-4-(3-((4-methyl-4H-1,2,4-triazol-3-yl)methyl)oxetan-3-yl)pyridin-2-yl)-6-((3-methylpiperidin-1-yl)methyl)-4-(trifluoromethyl)isoindolin-1-one]
- IC50: 0.00501 to 0.02 µM

SMILES: C[C@H]1CCCN(Cc2cc3c(c(C(F)(F)F)c2)CN(c2cc(C4(Cc5nncn5C)COC4)cc(N4CCNCC4)n2)C3=O)C1 [Compound 140, (S)-2-(4-(3-((4-methyl-4H-1,2,4-triazol-3-yl)methyl)oxetan-3-yl)-6-(piperazin-1-yl)pyridin-2-yl)-6-((3-methylpiperidin-1-yl)methyl)-4-(trifluoromethyl)isoindolin-1-one; trifluoro acetic acid]
- IC50: 0.00501 to 0.02 µM

SMILES: C[C@H]1CCCN(Cc2cc3c(c(C(F)(F)F)c2)CN(c2cc(C4(Cc5nncn5C)COC4)cc(NCCCC#N)n2)C3=O)C1 [Compound 143, 4-[(4-{3-[(4-methyl-1,2,4-triazol-3-yl)methyl]oxetan-3-yl}-6-(6-{[(3S)-3-methylpiperidin-1-yl]methyl}-1-oxo-4-(trifluoromethyl)-3H-isoindol-2-yl)pyridin-2-yl)amino]butanenitrile; trifluoroacetic acid]
- IC50: 0.001 to 0.005 µM

SMILES: CCSc1cc(C2(Cc3nncn3C)COC2)cc(N2Cc3c(C#N)cc(CN4CCC[C@H](C)C4)cc3C2=O)n1 [Compound 144, 2-[6-(ethylsulfanyl)-4-{3-[(4-methyl-1,2,4-triazol-3-yl)methyl]oxetan-3-yl}pyridin-2-yl]-6-{[(3S)-3-methylpiperidin-1-yl]methyl}-1-oxo-3H-isoindole-4-carbonitrile; trifluoroacetic acid]
- IC50: 0.00501 to 0.02 µM

SMILES: CCSc1cc(C2(Cc3nncn3C)COC2)cc(N2Cc3c(C(N)=O)cc(CN4CCC[C@H](C)C4)cc3C2=O)n1 [Compound 145, 2-[6-(ethylsulfanyl)-4-{3-[(4-methyl-1,2,4-triazol-3-yl)methyl]oxetan-3-yl}pyridin-2-yl]-6-{[(3S)-3-methylpiperidin-1-yl]methyl}-1-oxo-3H-isoindole-4-carboxamide]
- IC50: 0.00501 to 0.02 µM

SMILES: CCNc1cc(C2(Cc3nncn3C)COC2)cc(N2Cc3cc(CN4CCC[C@H](C)C4)sc3C2=O)n1 [Compound 149, 5-[6-(ethylamino)-4-{3-[(4-methyl-1,2,4-triazol-3-yl)methyl]oxetan-3-yl}pyridin-2-yl]-2-{[(3S)-3-methylpiperidin-1-yl]methyl}-4H-thieno[2,3-c]pyrrol-6-one]
- IC50: 0.02 to 0.1 µM

SMILES: C#CCOCC(c1cc2c(c(C(F)(F)F)c1)CN(c1cccc(C3(c4nncn4C)CC(C)C3)c1)C2=O)N1CCC[C@H](C)C1 (stereo partly drawn) [Compound 151, 6-{1-[(3S)-3-methylpiperidin-1-yl]-2-(prop-2-yn-1-yloxy)ethyl}-2-{3-[(1r,3s)-3-methyl-1-(4-methyl-1,2,4-triazol-3-yl)cyclobutyl]phenyl}-4-(trifluoromethyl)-3H-isoindol-1-one]
- IC50: 0.1 to 1 µM

SMILES: Cn1cnnc1CC1(c2cc(NCCC#N)nc(N3Cc4c(cc(CN5CCC(O)(C6CC6)CC5)cc4C(F)(F)F)C3=O)c2)COC1 [Compound 155, 3-[(6-{6-[(4-cyclopropyl-4-hydroxypiperidin-1-yl)methyl]-1-oxo-4-(trifluoromethyl)-3H-isoindol-2-yl}-4-{3-[(4-methyl-1,2,4-triazol-3-yl)methyl]oxetan-3-yl}pyridin-2-yl)amino]propanenitrile]
- IC50: 0.001 to 0.005 µM

SMILES: C[C@H](Cc1nncn1C)c1cccc(NC(=O)c2ccc(C=O)c(C3CC3)n2)c1 [Compound 156, 6-cyclopropyl-5-formyl-N-{3-[(2R)-1-(4-methyl-1,2,4-triazol-3-yl)propan-2-yl]phenyl}pyridine-2-carboxamide]
- IC50: 0.02 to 0.1 µM
